Measurements from patent US20260274829A1, “NEW E3 UBIQUITIN LIGASE LIGAND, PROTEIN DEGRADATION AGENT AND USE THEREOF” (GLUETACS THERAPEUTICS (SHANGHAI) CO., LTD., priority 2023, published 2026).

Target: T1, human Cereblon WT GST-tagged protein (Homo sapiens, UniProt Q96SW2)
T1 construct: purchased CISBIO 64BDCRBNPEH
Assay: CRBN binding, HTRF CEREBLON BINDING kit
Conditions: CRBN binding, HTRF CEREBLON BINDING kit
Experimental: The CEREBLON BINDING kits (specification: 10,000 tests; product number: Catalog #64BDCRBNPEH; CISBIO company) was used to determine the CRBN binding ability of the compounds to be tested through a HTRF method (homogeneous time-resolved fluorescence). The specific methods are as follows: • 1. […] Then, 2.5 μL of human Cereblon WT GST-tagged protein solution was added to each well. Finally, 5 μL of the thoroughly mixed Thalidomide-Re reagent and GST Eu antibody working solution were added to each of the aforementioned wells. […] The blank control wells were sequentially added with 2.5 μL of diluent #9 (1×) solution, 2.5 μL of binding buffer, and 5 μL of thoroughly mixed Thalidomide-Re reagent and GST Eu antibody working solution. • 4. After sealing and incubating the solutions in the aforementioned wells at room temperature for 3 hours, the absorbance values at emission wavelengths of 620 nm and 665 nm were detected by the HTRF method using a Spark microplate reader (V3.1 SP1).
The corresponding CRBN binding inhibition rate was calculated using the following method:
[formula] [formula] [formula] • Note: OD 665 nmcompound is the absorbance value of each well of the compounds to be tested of the present disclosure at an emission wavelength of 665 nm. • OD 620 nmcompound is the absorbance value of each well of the compounds to be tested of the present disclosure at an emission wavelength of 620 nm. • OD 665 nmcontrol is the absorbance value of the blank control well at an emission wavelength of 665 nm. • OD 620 nmcontrol is the absorbance value of the blank control well at an emission wavelength of 620 nm. • OD 665 nmStd0 is the absorbance value of the solvent control well at an emission wavelength of 665 nm. • OD 620 nmStd0 is the absorbance value of the solvent control well at an emission wavelength of 620 nm.

T1 sequence (Q96SW2 whole entry): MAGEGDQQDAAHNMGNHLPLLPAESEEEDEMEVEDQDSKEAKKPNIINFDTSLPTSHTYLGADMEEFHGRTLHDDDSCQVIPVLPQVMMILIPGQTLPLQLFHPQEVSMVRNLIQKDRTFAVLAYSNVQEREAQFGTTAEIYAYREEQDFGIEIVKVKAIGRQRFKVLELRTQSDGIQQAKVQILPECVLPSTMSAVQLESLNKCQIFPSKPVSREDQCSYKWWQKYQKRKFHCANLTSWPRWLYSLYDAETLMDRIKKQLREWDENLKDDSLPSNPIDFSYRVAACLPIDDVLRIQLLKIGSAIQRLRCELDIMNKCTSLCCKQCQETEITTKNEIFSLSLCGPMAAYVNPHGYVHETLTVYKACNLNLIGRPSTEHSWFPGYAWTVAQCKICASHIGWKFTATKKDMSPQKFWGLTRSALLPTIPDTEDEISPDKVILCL

Question: CC(C)(O)c1cc2nn(C3CCN(Cc4ccc(C5CCC(=O)NC5=O)cc4)CC3)cc2cc1NC(=O)c1cccc(C(F)(F)F)n1 (centres unmarked) [GT-05753, N-(2-(1-(4-(2,6-dioxopiperidin-3-yl)benzyl)piperidin-4-yl)-6-(2-hydroxypropan-2-yl)-2H-indazol-5-yl)-6-(trifluoromethyl)picolinamide] was tested. Which IC50 did it give?
Answer: The IC50 was 500 to 1000 nM.

Question: For COc1cc(N2CCC(N3CCN(Cc4ccc(C5CCC(=O)NC5=O)cn4)CC3)CC2)ccc1Nc1ncc(Cl)c(Nc2ccccc2P(C)(C)=O)n1 (centres unmarked) [GT-07613, 3-(6-((4-(1-(4-((5-chloro-4-((2-(dimethylphosphoryl)phenyl)amino)pyrimidin-2-yl)amino)-3-methoxyphenyl)piperidin-4-yl)piperazin-1-yl)methyl)pyridin-3-yl)piperidine-2,6-dione], which IC50 is on record?
Answer: The IC50 was 500 to 1000 nM.

Question: For Cc1cc(-c2nc(C(=O)Nc3cc4oc(N5CCN(Cc6ccc(N7CCC(=O)NC7=O)cc6)CC5)nc4nc3N3CC[C@@H](O)C3)co2)ccn1 [GT-05807, (R)—N-(2-(4-(4-(2,4-dioxotetrahydropyrimidin-1(2H)-yl)benzyl)piperazin-1-yl)-5-(3-hydroxypyrrolidin-1-yl)oxazolo[4,5-b]pyridin-6-yl)-2-(2-methylpyridin-4-yl)oxazole-4-carboxamide], which IC50 is on record?
Answer: Its IC50 is 500 to 1000 nM.

Question: O=C1CCC(c2ccc(CN3CCN(c4ccc(-c5cc(F)c6c(c5)C(=O)N(C(C(=O)Nc5nccs5)c5ncn7c5CCC7)C6)cc4)CC3)cc2)C(=O)N1 (centres unmarked) [GT-06163, 2-(6,7-dihydro-5H-pyrrolo[1,2-c]imidazol-1-yl)-2-(6-(4-(4-(4-(2,6-dioxopiperidin-3-yl)benzyl)piperazin-1-yl)phenyl)-4-fluoro-1-oxoisoindolin-2-yl)-N-(thiazol-2-yl)acetamide] was tested. Which IC50 did it give?
Answer: The IC50 was 500 to 1000 nM.

Question: How did the IC50 turn out when Cc1cc(Nc2ncc(Cl)c(Nc3ccccc3S(=O)(=O)C(C)C)n2)c(OC(C)C)cc1C1CCN(Cc2cncc(C3CCC(=O)NC3=O)c2)CC1 (centres unmarked) [GT-07601, 3-(5-((4-(4-((5-chloro-4-((2-(isopropylsulfonyl)phenyl)amino)pyrimidin-2-yl)amino)-5-isopropoxy-2-methylphenyl)piperidin-1-yl)methyl)pyridin-3-yl)piperidine-2,6-dione] was run?
Answer: The IC50 was 1000 to 1900 nM.

Question: With COc1cc2nn(C3CCN(Cc4cccc(N5CCC(=O)NC5=O)c4)CC3)cc2cc1NC(=O)c1cccc(C(F)(F)F)c1 [GT-04750, N-(2-(1-(3-(2,4-dioxotetrahydropyrimidin-1(2H)-yl)benzyl)piperidin-4-yl)-6-methoxy-2H-indazol-5-yl)-3-(trifluoromethyl)benzamide] as the compound, how does the IC50 read?
Answer: Its IC50 is 1000 to 1900 nM.

Question: CCc1cc2c(cc1N1CCC(N3CCN(Cc4cc(C5CCC(=O)NC5=O)cnc4F)CC3)CC1)C(C)(C)c1[nH]c3cc(C#N)ccc3c1C2=O (centres unmarked) [GT-07703, 8-(4-(4-((5-(2,6-dioxopiperidin-3-yl)-2-fluoropyridin-3-yl)methyl)piperazin-1-yl)piperidin-1-yl)-9-ethyl-6,6-dimethyl-11-oxo-6,11-dihydro-5H-benzo[b]carbazole-3-carbonitrile] was tested. Which IC50 did it give?
Answer: Its IC50 is under 500 nM.

Question: Which IC50 does the source give for CC(C)(O)c1cc2nc(C3CCN(Cc4ccc(N5CCC(=O)NC5=O)cc4)CC3)oc2cc1NC(=O)c1cccc(C(F)(F)F)n1 [GT-05772, N-(2-(1-(4-(2,4-dioxotetrahydropyrimidin-1(2H)-yl)benzyl)piperidin-4-yl)-5-(2-hydroxypropan-2-yl)benzo[d]oxazol-6-yl)-6-(trifluoromethyl)picolinamide] here?
Answer: The IC50 was 1000 to 1900 nM.

Question: How did the IC50 turn out when O=C1CCN(c2cccc(CN3CCN(C4CCN(c5ccc(-c6cc(F)c7c(c6)C(=O)N(C(C(=O)Nc6nccs6)c6ncn8c6CCC8)C7)cc5)CC4)CC3)c2)C(=O)N1 (centres unmarked) [GT-06245, 2-(6,7-dihydro-5H-pyrrolo[1,2-c]imidazol-1-yl)-2-(6-(4-(4-(4-(3-(2,4-dioxotetrahydropyrimidin-1(2H)-yl)benzyl)piperazin-1-yl)piperidin-1-yl)phenyl)-4-fluoro-1-oxoisoindolin-2-yl)-N-(thiazol-2-yl)acetamide] was run?
Answer: Its IC50 is under 500 nM.

Question: COc1cc(N2CCC(N3CCN(Cc4ccc(C5CCC(=O)NC5=O)cc4)CC3)CC2)ccc1Nc1ncc(Cl)c(Nc2ccccc2P(C)(C)=O)n1 (centres unmarked) [GT-07602, 3-(4-((4-(1-(4-((5-chloro-4-((2-(dimethylphosphoryl)phenyl)amino)pyrimidin-2-yl)amino)-3-methoxyphenyl)piperidin-4-yl)piperazin-1-yl)methyl)phenyl)piperidine-2,6-dione] was tested. Which IC50 did it give?
Answer: Its IC50 is under 500 nM.

Question: Which IC50 does the source give for Cc1nc2c(F)cc(-c3nc(Nc4ccc(N5CCC(N6CCN(Cc7ccc(N8CCC(=O)NC8=O)cc7)CC6)CC5)cn4)ncc3F)cc2n1C(C)C [GT-06739, 1-(4-((4-(1-(6-((5-fluoro-4-(4-fluoro-1-isopropyl-2-methyl-1H-benzo[d]imidazol-6-yl)pyrimidin-2-yl)amino)pyridin-3-yl)piperidin-4-yl)piperazin-1-yl)methyl)phenyl)dihydropyrimidine-2,4(1H,3H)-dione] here?
Answer: Its IC50 is 500 to 1000 nM.

Question: For O=C1CCN(c2ccc(CN3CCC(N4CCN(c5ccc(-c6cc(F)c7c(c6)C(=O)N(C(C(=O)Nc6nccs6)c6ncn8c6CCC8)C7)cc5)CC4)CC3)nc2)C(=O)N1 (centres unmarked) [GT-06329, 2-(6,7-dihydro-5H-pyrrolo[1,2-c]imidazol-1-yl)-2-(6-(4-(4-(1-((5-(2,4-dioxotetrahydropyrimidin-1(2H)-yl)pyridin-2-yl)methyl)piperidin-4-yl)piperazin-1-yl)phenyl)-4-fluoro-1-oxoisoindolin-2-yl)-N-(thiazol-2-yl)acetamide], which IC50 is on record?
Answer: The IC50 was 1000 to 1900 nM.

Question: With COc1cc(N2CCC(N(C)Cc3cccc(N4CCC(=O)NC4=O)c3)CC2)ccc1Nc1ncc(Cl)c(Nc2ccccc2P(C)(C)=O)n1 [GT-07616, 1-(3-(((1-(4-((5-chloro-4-((2-(dimethylphosphoryl)phenyl)amino)pyrimidin-2-yl)amino)-3-methoxyphenyl)piperidin-4-yl)(methyl)amino)methyl)phenyl)dihydropyrimidine-2,4(1H,3H)-dione] as the compound, how does the IC50 read?
Answer: The IC50 was 1000 to 1900 nM.

Question: COc1cc(N2CCC(N(C)Cc3cncc(C4CCC(=O)NC4=O)c3)CC2)ccc1Nc1ncc(Cl)c(Nc2ccccc2P(C)(C)=O)n1 (centres unmarked) [GT-07699, 3-(5-(((1-(4-((5-chloro-4-((2-(dimethylphosphoryl)phenyl)amino)pyrimidin-2-yl)amino)-3-methoxyphenyl)piperidin-4-yl)(methyl)amino)methyl)pyridin-3-yl)piperidine-2,6-dione] was tested. Which IC50 did it give?
Answer: Its IC50 is 500 to 1000 nM.

Question: Which IC50 does the source give for O=C1CCC(Nc2cccc(CN3CCC(n4cc(NC(=O)c5cnn6ccc(N7CCOCC7)nc56)c(C(F)F)n4)CC3)c2)C(=O)N1 (centres unmarked) [GT-05801, N-(3-(difluoromethyl)-1-(1-(3-((2,6-dioxopiperidin-3-yl)amino)benzyl)piperidin-4-yl)-1H-pyrazol-4-yl)-5-morpholinopyrazolo[1,5-a]pyrimidine-3-carboxamide] here?
Answer: The IC50 was 500 to 1000 nM.

Question: How did the IC50 turn out when O=C1CCC(c2cc(CN3CCN(c4ccc(-c5cc(F)c6c(c5)C(=O)N(C(C(=O)Nc5nccs5)c5ncn7c5CCC7)C6)cc4)CC3)ccn2)C(=O)N1 (centres unmarked) [GT-07392, 2-(6,7-dihydro-5H-pyrrolo[1,2-c]imidazol-1-yl)-2-(6-(4-(4-((2-(2,6-dioxopiperidin-3-yl)pyridin-4-yl)methyl)piperazin-1-yl)phenyl)-4-fluoro-1-oxoisoindolin-2-yl)-N-(thiazol-2-yl)acetamide] was run?
Answer: The IC50 was 1000 to 1900 nM.

Question: How did the IC50 turn out when Cn1cc(-c2cc(S(C)(=O)=O)ccc2OCc2ccc(C3CCC(=O)NC3=O)cc2)c2cc[nH]c2c1=O (centres unmarked) [GT-06415, 3-(4-((2-(6-methyl-7-oxo-6,7-dihydro-1H-pyrrolo[2,3-c]pyridin-4-yl)-4-(methylsulfonyl)phenoxy)methyl)phenyl)piperidine-2,6-dione] was run?
Answer: The IC50 was under 500 nM.

Question: Which IC50 does the source give for O=C1CCN(c2ccc(CN3CCN(c4ccc(-c5cc(F)c6c(c5)C(=O)N(C(C(=O)Nc5nccs5)c5ncn7c5CCC7)C6)cc4)CC3)nc2)C(=O)N1 (centres unmarked) [GT-06229, 2-(6,7-dihydro-5H-pyrrolo[1,2-c]imidazol-1-yl)-2-(6-(4-(4-((5-(2,4-dioxotetrahydropyrimidin-1(2H)-yl)pyridin-2-yl)methyl)piperazin-1-yl)phenyl)-4-fluoro-1-oxoisoindolin-2-yl)-N-(thiazol-2-yl)acetamide] here?
Answer: The IC50 was 500 to 1000 nM.

Question: With COc1ccc2cn(C3CCN(Cc4ccc(C5CCC(=O)NC5=O)cc4)CC3)nc2c1NC(=O)c1cccc(C(F)(F)F)c1 (centres unmarked) [GT-04813, N-(2-(1-(4-(2,6-dioxopiperidin-3-yl)benzyl)piperidin-4-yl)-6-methoxy-2H-indazol-7-yl)-3-(trifluoromethyl)benzamide] as the compound, how does the IC50 read?
Answer: The IC50 was 1000 to 1900 nM.

Question: With CN(Cc1cccc(N2CCC(=O)NC2=O)c1)C1CCN(c2ccc(Nc3ncc4nc(Nc5ccccc5)n(C5CCCC5)c4n3)cc2)CC1 [GT-05870, 1-(3-(((1-(4-((9-cyclopentyl-8-(phenylamino)-9H-purin-2-yl)amino)phenyl)piperidin-4-yl)(methyl)amino)methyl)phenyl)dihydropyrimidine-2,4(1H,3H)-dione] as the compound, how does the IC50 read?
Answer: Its IC50 is 500 to 1000 nM.
